Read-outs that look alike come from different tables or passages of the source.
Columns and labels:
ANJEA‐CD = assay: ANJEA-CD kinase activity (autophosphorylation); type: biochemical, Arabidopsis thaliana; settings: 5 μM
PER5 = settings: 5 μM for 24 h, confocal microscopy
HERK1‐CD = assay: HERK1-CD kinase activity (autophosphorylation); type: biochemical, Arabidopsis thaliana; settings: 5 μM
Ralstonia solanacearum [1] = type: in vivo; settings: Arabidopsis seedlings pretreated with 5 μM, 4 days after inoculation
FRK1 = settings: 5 μM for 24 h, confocal microscopy
THE1‐CD = assay: THE1-CD kinase activity (autophosphorylation); type: biochemical, Arabidopsis thaliana; settings: 5 μM
[2] = test system: ROS in Col‐0 and fer‐4 roots; assay: ROS detection in plant roots (H2DCF-DA fluorescence); settings: 5 μM for 15 min, vs DMSO and lapatinib
[3] = test system: FER cytoplasmic domain (FER‐CD); assay: FER-CD kinase activity (autophosphorylation), high-throughput screening, Kinase-Lumi luminescent ATP consumption; type: biochemical, Arabidopsis thaliana; settings: in vitro autophosphorylation
FER‐CD [4] = target: T1, FER‐CD (Arabidopsis thaliana, UniProt Q9SCZ4); assay: biochemical
Ralstonia solanacearum [5] = type: in vivo, tobacco; settings: 5 μM irrigated twice two days after inoculation
Meloidogyne incognita [6] = assay: Established rice root-knot nematode disease (inhibitor applied after inoculation); type: in vivo; settings: in vivo
PKC = test system: PKC; parameters: method as in Omura et al., [2018]; settings: ref Omura et al., [2018]; cited from earlier work
Meloidogyne incognita [7] = assay: Rice root-knot nematode disease, preventive root treatment; type: in vivo; settings: in vivo
tobacco = assay: Growth of tobacco (shoot and root fresh weight, Day 25); settings: 5 μM irrigated twice
Ralstonia solanacearum [8] = type: in vivo, tobacco; settings: roots pretreated twice with 3 mL of 5 μM
Ralstonia solanacearum [9] = type: in vivo, tomato; settings: roots pretreated twice with 3 mL of 5 μM
[10] = test system: Arabidopsis Col‐0 and fer‐4 seedlings; assay: Growth of Arabidopsis seedlings (root length, shoot fresh weight); settings: 5 μM for 3 days, vs ddH2O (mock) and lapatinib
PKA = test system: PKA; parameters: method as in Omura et al., [2018]; settings: ref Omura et al., [2018]; cited from earlier work
NtFER‐CD = assay: NtFER-CD kinase activity (autophosphorylation); type: biochemical, Nicotiana tabacum; settings: tobacco FER homologue
FER‐CD [11] = target: T1, FER‐CD; settings: read-out: Equilibrium dissociation constant (KD) of binding to FER-CD; MST, 25°C, 100 nM labelled FER-CD, means ± SEs (n = 3)

T1 sequence (Q9SCZ4 469-895): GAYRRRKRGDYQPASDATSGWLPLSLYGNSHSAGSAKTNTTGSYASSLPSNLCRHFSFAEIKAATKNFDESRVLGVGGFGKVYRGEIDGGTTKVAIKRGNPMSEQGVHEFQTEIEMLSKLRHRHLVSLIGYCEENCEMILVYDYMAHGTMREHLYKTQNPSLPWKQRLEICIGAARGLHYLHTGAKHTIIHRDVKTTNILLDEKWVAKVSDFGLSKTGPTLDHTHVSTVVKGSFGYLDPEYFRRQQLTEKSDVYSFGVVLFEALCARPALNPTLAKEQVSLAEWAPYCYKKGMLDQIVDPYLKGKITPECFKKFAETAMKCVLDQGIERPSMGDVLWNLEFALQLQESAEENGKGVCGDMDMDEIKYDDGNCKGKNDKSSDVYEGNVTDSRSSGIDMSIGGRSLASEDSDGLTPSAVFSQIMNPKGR

With `Cc1cc(Nc2ncc(F)c(NC3C4C=CC(C4)C3C(N)=O)n2)ccc1N1CCN(C)CC1` (stereo not drawn) [Cenisertib] as the molecule, how does the “Inhibition rate of ANJEA-CD kinase activity” value (ANJEA‐CD) read?
Its value is “higher than 88%”.

What about the “Expression of PER5 in roots” value (PER5) of the same molecule?
Its value is “did not affect the expression of PER5”.

And the “Inhibition rate of HERK1-CD kinase activity” value (HERK1‐CD)?
The value was “higher than 88%”.

What about the “Cotyledon bleaching caused by R. solanacearum” value (shortened to “Cotyledon bleaching caused”) (Ralstonia solanacearum [1]) of the same molecule?
The value was “turned white”.

What about the “Expression of FRK1 in roots” value (FRK1) of the same molecule?
Its value is “increased the expression of FRK1”.

And the “Inhibition rate of THE1-CD kinase activity” value (THE1‐CD)?
Its value is “higher than 88%”.

What about the “Production of ROS in Col-0 roots” value [2] of the same molecule?
The value was “had no effect on ROS levels”.

What about the “Effect on FER kinase activity” value [3] of the same molecule?
Its value is “inhibited the kinase activity of FER”.

And the Kd (FER‐CD [4])?
The Kd was 1970 nM.

With `CN[C@@H]1C[C@H]2O[C@@](C)([C@@H]1OC)n1c3ccccc3c3c4c(c5c6ccccc6n2c5c31)C(=O)NC4` [Staurosporine] as the molecule, how does the “Effect on established tobacco bacterial wilt” value (Ralstonia solanacearum [5]) read?
The value was “could not completely prevent the occurrence of the diseases or cure already diseased plants”.

And the “Effect on established rice root-knot nematode disease” value (Meloidogyne incognita [6])?
The value was “could not completely prevent the occurrence of the diseases or cure already diseased plants”.

What about the “Expression of PER5 in roots” value (PER5) of the same molecule?
The value was “elevated the expression of PER5 to a certain extent”.

And the “Cotyledon bleaching caused” value (Ralstonia solanacearum [1])?
The value was “effectively prevented the cotyledon bleaching”.

And the “Control of rice root-knot nematode disease” value (Meloidogyne incognita [7])?
The value was “alleviated soil‐borne diseases”.

And the “Growth (biomass) of tobacco shoots and roots” value (tobacco)?
The value was “did not observably affect the biomass”.

What about the “Expression of FRK1 in roots” value (FRK1) of the same molecule?
The value was “observably enhanced the expression of FRK1”.

And the Root cell morphology (FRK1)?
The Root cell morphology was “caused expansion of the root cells”.

And the “Control of tobacco bacterial wilt” value (Ralstonia solanacearum [8])?
Its value is “alleviated soil‐borne diseases”.

And the “Control of tomato bacterial wilt” value (Ralstonia solanacearum [9])?
The value was “alleviated soil‐borne diseases”.

And the “Growth of roots and shoots of Arabidopsis Col-0 seedlings” value [10]?
Its value is “severely inhibited root and shoot growth”.

What about the “Production of ROS in Col-0 roots” value [2] of the same molecule?
The value was “significantly increased the production of ROS”.

And the “Effect on FER kinase activity” value [3]?
Its value is “inhibited the kinase activity of FER”.

With `CS(=O)(=O)CCNCc1ccc(-c2ccc3ncnc(Nc4ccc(OCc5cccc(F)c5)c(Cl)c4)c3c2)o1` [lapatinib] as the molecule, how does the “Inhibitory effect on NtFER-CD kinase activity” value (NtFER‐CD) read?
Its value is “ineffective”.

What about the “Expression of PER5 in roots” value (PER5) of the same molecule?
The value was “did not affect the expression levels”.

What about the “Cotyledon bleaching caused” value (Ralstonia solanacearum [1]) of the same molecule?
Its value is “turned white”.

And the “Expression of FRK1 in roots” value (FRK1)?
Its value is “did not affect the expression levels”.

What about the “Effect on FER kinase activity” value [3] of the same molecule?
Its value is “did not affect FER kinase activity”.

For `Nc1ncnc2c1ncn2[C@@H]1O[C@H](COP(=O)(O)OP(=O)(O)OP(=O)(O)O)[C@@H](O)[C@H]1O` [ATP], which Kd (FER‐CD [11]) is on record?
The Kd was 18400 nM.
